Results as given in US10246456B2, “IRAK4 inhibiting agents” (BIOGEN MA INC., priority 2014, dated 2019).

Key:
IRAK4 = IRAK4 (Homo sapiens (Human), UniProt Q9NWZ3); experiment: IRAK-4 AlphaScreen biochemical kinase assay; settings: 1 nM IRAK4, 1 mM ATP, 3.5 h at RT
In short: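 AlphaScreen read-out: streptavidin beads bind the biotinylated peptide and protein A beads bind the anti-phosphothreonine antibody, so energy transfer reports phosphorylation of the peptide. The kinase is human IRAK-4.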

IL-6 in A549 cells = experiment: Cell-based IL-6 ELISA assay in IL-1beta stimulated A549 cells; settings: 2 ng/ml human IL-1beta overnight
In short: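 A549 cells (2.5×10^4/well, DMEM/10% FBS) pretreated 30 min at 37 C with compound, 10-point serial dilution from 10 uM, then stimulated overnight with 2 ng/ml human IL-1beta. Secreted IL-6 in supernatant quantified by human IL-6 ELISA.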

IRAK4, sequence (Q9NWZ3 whole entry, species assumed): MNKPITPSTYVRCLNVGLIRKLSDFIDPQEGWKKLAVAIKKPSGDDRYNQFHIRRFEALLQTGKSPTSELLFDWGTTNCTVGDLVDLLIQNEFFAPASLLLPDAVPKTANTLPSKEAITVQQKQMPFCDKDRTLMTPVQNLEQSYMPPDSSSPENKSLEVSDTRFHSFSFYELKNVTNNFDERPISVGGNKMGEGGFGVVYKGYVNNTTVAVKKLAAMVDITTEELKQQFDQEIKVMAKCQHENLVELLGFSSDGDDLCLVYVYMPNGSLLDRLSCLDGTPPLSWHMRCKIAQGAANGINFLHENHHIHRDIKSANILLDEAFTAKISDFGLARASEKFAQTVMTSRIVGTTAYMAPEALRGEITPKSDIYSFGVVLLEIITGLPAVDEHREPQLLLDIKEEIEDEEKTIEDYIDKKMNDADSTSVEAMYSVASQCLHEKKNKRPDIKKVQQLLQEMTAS

Row | Structure (SMILES) | IC50 (IRAK4) | EC50 (IL-6 in A549 cells)
1 | C[C@H](N)c1ccnc(-c2ccc3cnn(-c4cccc(CO)n4)c3c2)n1 [Example 411, (S)-(6-(6-(4-(1-aminoethyl)pyrimidin-2-yl)-1H-indazol-1-yl)pyridin-2-yl)methanol] | < 100 nM | ≤ 1000 nM
2 | CCC[C@H](N)c1cccc(-c2cc(C3CCOCC3)c3cnn(-c4cccc(CO)n4)c3c2)n1 [Example 425, (S)-(6-(6-(6-(1-aminobutyl)pyridin-2-yl)-4-(tetrahydro-2H-pyran-4-yl)-1H-indazol-1-yl)pyridin-2-yl)methanol] | < 100 nM | ≤ 1000 nM
3 | CCOc1cc(-c2cccc([C@@H](N)CC(C)(F)F)n2)cc2c1cnn2-c1cccc(CO)n1 [Example 438, (S)-(6-(6-(6-(1-amino-3,3-difluorobutyl)pyridin-2-yl)-4-ethoxy-1H-indazol-1-yl)pyridin-2-yl)methanol] | < 100 nM | ≤ 1000 nM
4 | CCOc1cc(-c2cccc([C@H](N)c3ccccc3)n2)cc2c1cnn2-c1cccc(CO)n1 [Example 439, (R)-(6-(6-(6-(amino(phenyl)methyl)pyridin-2-yl)-4-ethoxy-1H-indazol-1-yl)pyridin-2-yl)methanol] | < 100 nM | ≤ 1000 nM
5 | CCOc1cc(-c2cccc([C@@H](N)[C@@H](F)CC)n2)cc2c1cnn2-c1cccc(CO)n1 [Example 442, (6-(6-(6-((1R,2S)-1-amino-2-fluorobutyl)pyridin-2-yl)-4-ethoxy-1H-indazol-1-yl)pyridin-2-yl)methanol] | < 100 nM | ≤ 1000 nM
6 | CCOc1cc(-c2cccc([C@@H](N)[C@H](F)CC)n2)cc2c1cnn2-c1cccc(CO)n1 [Example 443, (6-(6-(6-((1R,2R)-1-amino-2-fluorobutyl)pyridin-2-yl)-4-ethoxy-1H-indazol-1-yl)pyridin-2-yl)methanol] | < 100 nM | ≤ 1000 nM
7 | CCOc1cc(-c2cccc([C@@H](N)[C@H](CC)OC)n2)cc2c1cnn2-c1cccc(CO)n1 [Example 444, (6-(6-(6-((1R,2S)-1-amino-2-methoxybutyl)pyridin-2-yl)-4-ethoxy-1H-indazol-1-yl)pyridin-2-yl)methanol] | < 100 nM | 1000 to 10000 nM
8 | CCOc1cc(-c2cccc([C@@H](N)[C@@H](CC)OC)n2)cc2c1cnn2-c1cccc(CO)n1 [Example 445, (6-(6-(6-((1R,2R)-1-amino-2-methoxybutyl)pyridin-2-yl)-4-ethoxy-1H-indazol-1-yl)pyridin-2-yl)methanol] | < 100 nM | ≤ 1000 nM
9 | CCOc1cc(-c2cccc(C(N)C3COC3)n2)cc2c1cnn2-c1cccc(CO)n1 (stereo not shown) [Example 447, (6-(6-(6-(amino(oxetan-3-yl)methyl)pyridin-2-yl)-4-ethoxy-1H-indazol-1-yl)pyridin-2-yl)methanol] | < 100 nM | ≤ 1000 nM
10 | CCC[C@H](N)c1cccc(-c2ccc3cnn(-c4cccc([C@@H](O)C(F)(F)F)n4)c3c2)n1 [Example 451, (R)-1-(6-(6-(6-((S)-1-aminobutyl)pyridin-2-yl)-1H-indazol-1-yl)pyridin-2-yl)-2,2,2-trifluoroethanol] | < 100 nM | ≤ 1000 nM
11 | CC[C@@H](F)[C@H](N)c1cccc(-c2cc(OCCOC)c3cnn(-c4cccc(CO)n4)c3c2)n1 [Example 453, (6-(6-(6-((1R,2R)-1-amino-2-fluorobutyl)pyridin-2-yl)-4-(2-methoxyethoxy)-1H-indazol-1-yl)pyridin-2-yl)methanol] | < 100 nM | ≤ 1000 nM
12 | CC[C@H](F)[C@H](N)c1cccc(-c2cc(OCCOC)c3cnn(-c4cccc(CO)n4)c3c2)n1 [Example 454, (6-(6-(6-((1R,2S)-1-amino-2-fluorobutyl)pyridin-2-yl)-4-(2-methoxyethoxy)-1H-indazol-1-yl)pyridin-2-yl)methanol] | < 100 nM | ≤ 1000 nM
13 | CCC[C@H](N)c1cccc(-c2cc(OCCCOC)c3cnn(-c4cccc(CO)n4)c3c2)n1 [Example 456, (S)-(6-(6-(6-(1-aminobutyl)pyridin-2-yl)-4-(3-methoxypropoxy)-1H-indazol-1-yl)pyridin-2-yl)methanol] | < 100 nM | ≤ 1000 nM
14 | CC[C@H](N)c1cccc(-c2cc(OCCCOC)c3cnn(-c4cccc(CO)n4)c3c2)n1 [Example 457, (S)-(6-(6-(6-(1-aminopropyl)pyridin-2-yl)-4-(3-methoxypropoxy)-1H-indazol-1-yl)pyridin-2-yl)methanol] | < 100 nM | ≤ 1000 nM
15 | COCCCOc1cc(-c2cccc([C@H](C)N)n2)cc2c1cnn2-c1cccc(CO)n1 [Example 458, (S)-(6-(6-(6-(1-aminoethyl)pyridin-2-yl)-4-(3-methoxypropoxy)-1H-indazol-1-yl)pyridin-2-yl)methanol] | < 100 nM | ≤ 1000 nM
16 | CCC[C@H](N)c1cccc(-c2cc(OC)c3cnn(-c4cccc(CO)n4)c3c2)n1 [Example 463, (S)-(6-(6-(6-(1-aminobutyl)pyridin-2-yl)-4-methoxy-1H-indazol-1-yl)pyridin-2-yl)methanol] | < 100 nM | ≤ 1000 nM
17 | CCC[C@H](N)c1cccc(-c2cc(OCC)c3cnn(-c4cccc(CO)n4)c3c2)n1 [Example 464, (S)-(6-(6-(6-(1-aminobutyl)pyridin-2-yl)-4-ethoxy-1H-indazol-1-yl)pyridin-2-yl)methanol] | < 100 nM | ≤ 1000 nM
18 | CCC[C@H](N)c1cccc(-c2cc(F)c3cnn(-c4cccc(CO)n4)c3c2)n1 [Example 474, (6-{6-[6-((S)-1-Amino-butyl)-pyridin-2-yl]-4-fluoro-indazol-1-yl}-pyridin-2-yl)-methanol] | < 100 nM | ≤ 1000 nM
19 | CCC[C@H](N)c1cccc(-c2cc(OCCOC)c3cnn(-c4cccc(CO)n4)c3c2)n1 [Example 476, (S)-(6-(6-(6-(1-aminobutyl)pyridin-2-yl)-4-(2-methoxyethoxy)-1H-indazol-1-yl)pyridin-2-yl)methanol] | < 100 nM | ≤ 1000 nM
20 | CCC[C@H](N)c1cccc(-c2cc(OC(C)C)c3cnn(-c4cccc(CO)n4)c3c2)n1 [Example 483, (6-{6-[6-((S)-1-Amino-butyl)-pyridin-2-yl]-4-isopropoxy-indazol-1-yl}-pyridin-2-yl)-methanol] | < 100 nM | ≤ 1000 nM

More lines, now with the values ahead:

Row | IC50 (IRAK4) | EC50 (IL-6 in A549 cells) | Structure (SMILES)
21 | < 100 nM | ≤ 1000 nM | CCC[C@H](N)c1ccnc(-c2ccc3cnn(-c4cccc(CO)n4)c3c2)n1 [Example 413, (S)-(6-(6-(4-(1-aminobutyl)pyrimidin-2-yl)-1H-indazol-1-yl)pyridin-2-yl)methanol]
22 | < 100 nM | ≤ 1000 nM | CCC[C@@H](N)c1ccnc(-c2ccc3cnn(-c4cccc(CO)n4)c3c2)n1 [Example 414, (R)-(6-(6-(4-(1-aminobutyl)pyrimidin-2-yl)-1H-indazol-1-yl)pyridin-2-yl)methanol]
23 | < 100 nM | ≤ 1000 nM | N[C@H](c1cccc(-c2ccc3cnn(-c4cccc(CO)n4)c3c2)n1)C1CCC1 [Example 422, (S)-(6-(6-(6-(amino(cyclobutyl)methyl)pyridin-2-yl)-1H-indazol-1-yl)pyridin-2-yl)methanol]
24 | < 100 nM | ≤ 1000 nM | N[C@@H](CCC(F)(F)F)c1cccc(-c2ccc3cnn(-c4cccc(CO)n4)c3c2)n1 [Example 427, (S)-(6-(6-(6-(1-amino-4,4,4-trifluorobutyl)pyridin-2-yl)-1H-indazol-1-yl)pyridin-2-yl)methanol]
25 | < 100 nM | ≤ 1000 nM | C=C(C)C[C@H](N)c1cccc(-c2ccc3cnn(-c4cccc(CO)n4)c3c2)n1 [Example 436, (S)-(6-(6-(6-(1-amino-3-methylbut-3-en-1-yl)pyridin-2-yl)-1H-indazol-1-yl)pyridin-2-yl)methanol]
26 | < 100 nM | ≤ 1000 nM | CC(F)(F)C[C@H](N)c1cccc(-c2ccc3cnn(-c4cccc(CO)n4)c3c2)n1 [Example 437, (S)-(6-(6-(6-(1-amino-3,3-difluorobutyl)pyridin-2-yl)-1H-indazol-1-yl)pyridin-2-yl)methanol]
27 | < 100 nM | ≤ 1000 nM | NC(c1cccc(-c2ccc3cnn(-c4cccc(CO)n4)c3c2)n1)C1COC1 (stereo not shown) [Example 446, (6-(6-(6-(amino(oxetan-3-yl)methyl)pyridin-2-yl)-1H-indazol-1-yl)pyridin-2-yl)methanol]
28 | < 100 nM | 1000 to 10000 nM | CC1(CC(N)c2cccc(-c3ccc4cnn(-c5cccc(CO)n5)c4c3)n2)COC1 (stereo not shown) [Example 448, (6-(6-(6-(1-amino-2-(3-methyloxetan-3-yl)ethyl)pyridin-2-yl)-1H-indazol-1-yl)pyridin-2-yl)methanol]
29 | < 100 nM | 1000 to 10000 nM | CCC[C@H](N)c1cccc(-c2ccc3cnn(-c4cccc(C=O)n4)c3c2)n1 [Example 450, (S)-6-(6-(6-(1-aminobutyl)pyridin-2-yl)-1H-indazol-1-yl)picolinaldehyde]
30 | < 100 nM | 1000 to 10000 nM | CCC[C@H](N)c1cccc(-c2ccc3cnn(-c4cccc([C@H](O)C(F)(F)F)n4)c3c2)n1 [Example 452, (S)-1-(6-(6-(6-((S)-1-aminobutyl)pyridin-2-yl)-1H-indazol-1-yl)pyridin-2-yl)-2,2,2-trifluoroethanol]
31 | < 100 nM | ≤ 1000 nM | CC[C@H](N)c1cccc(-c2cc(F)c3cnn(-c4cccc(CO)n4)c3c2)n1 [Example 473, (S)-(6-(6-(6-(1-aminopropyl)pyridin-2-yl)-4-fluoro-1H-indazol-1-yl)pyridin-2-yl)methanol]
32 | < 100 nM | ≤ 1000 nM | CC[C@H](N)c1cccc(-c2cc(NC)c3cnn(-c4cccc(CO)n4)c3c2)n1 [Example 485, (S)-(6-(6-(6-(1-aminopropyl)pyridin-2-yl)-4-(methylamino)-1H-indazol-1-yl)pyridin-2-yl)methanol]
